From the supplement of paper PMC10307832

Legend:
Assay in all cases: relative viability (nuclei count vs DMSO), 5 days (fraction); higher = more cells survive
[1] = compound: C1COCCN1C2=NC(=NC3=C2OC4=C3C=CC=N4)C5=CC(=CC=C5)NC(=O)C6=CN=C(C=C6)N + NC(=O)Nc1cc(-c2cccc(F)c2)sc1C(=O)N[C@H]1CCCNC1 [AZD7762] (partner 0.2 µM)
Method in brief: (§1)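 Lung cancer cell lines, seeded in 1536-well plates, were treated the following day by pin tool with a single drug or with five library-drug doses (not always all listed) in √10 steps on top of a fixed anchor-drug dose. Cells were fixed and nuclei stained in one step after 5 days, and nuclei were counted. Relative viability is the nuclei count for treated wells divided by that for vehicle wells, reported as medians of duplicate plates.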

[2] = compound: C1COCCN1C2=NC(=NC3=C2OC4=C3C=CC=N4)C5=CC(=CC=C5)NC(=O)C6=CN=C(C=C6)N + Nc1nc2[nH]cc(CCc3ccc(C(=O)N[C@@H](CCC(=O)O)C(=O)O)cc3)c2c(=O)[nH]1 [Pemetrexed] (partner 0.2 µM)
Method in brief: as §1

[3] = compound: C1COCCN1C2=NC(=NC3=C2OC4=C3C=CC=N4)C5=CC(=CC=C5)NC(=O)C6=CN=C(C=C6)N + Nc1ncn([C@H]2C[C@H](O)[C@@H](CO)O2)c(=O)n1 [Decitabine] (partner 2 µM)
Method in brief: as §1

Entinostat + Trametinib = compound: Nc1ccccc1NC(=O)c1ccc(CNC(=O)OCc2cccnc2)cc1 [Entinostat] + CC(=O)Nc1cccc(-n2c(=O)n(C3CC3)c(=O)c3c(Nc4ccc(I)cc4F)n(C)c(=O)c(C)c32)c1 [Trametinib] (partner 0.02 µM)
Method in brief: as §1

| Cell Line | relative viability ([1]; first compound 0.02 µM) | relative viability ([1]; first compound 0.06325 µM) | relative viability ([1]; first compound 0.2 µM) | relative viability ([1]; first compound 0.6325 µM) | relative viability ([1]; first compound 2 µM) | relative viability ([2]; first compound 0.02 µM) | relative viability ([2]; first compound 0.06325 µM) | relative viability ([2]; first compound 0.2 µM) | relative viability ([2]; first compound 0.6325 µM) | relative viability ([2]; first compound 2 µM) | relative viability ([3]; first compound 0.02 µM) | relative viability ([3]; first compound 0.06325 µM) | relative viability ([3]; first compound 0.2 µM) | relative viability ([3]; first compound 0.6325 µM) | relative viability ([3]; first compound 2 µM) | relative viability (Entinostat + Trametinib; first compound 0.02 µM) | relative viability (Entinostat + Trametinib; first compound 0.06325 µM) | relative viability (Entinostat + Trametinib; first compound 0.2 µM) | relative viability (Entinostat + Trametinib; first compound 0.6325 µM) | relative viability (Entinostat + Trametinib; first compound 2 µM) |
| --- | --- | --- | --- | --- | --- | --- | --- | --- | --- | --- | --- | --- | --- | --- | --- | --- | --- | --- | --- | --- |
| HCC-827 | 0.191 | 0.184 | 0.167 | 0.202 | 0.198 | 0.249 | 0.284 | 0.262 | 0.278 | 0.265 | 0.343 | 0.298 | 0.348 | 0.287 | 0.302 | 0.516 | 0.474 | 0.406 | 0.338 | 0.203 |
| HOP-62 | 0.732 | 0.494 | 0.434 | 0.633 | 0.291 | 0.298 | 0.3 | 0.301 | 0.29 | 0.162 | 0.193 | 0.227 | 0.243 | 0.313 | 0.412 | 0.412 | 0.435 | 0.392 | 0.351 | 0.18 |
| LC-2-ad | 0.939 | 0.9 | 0.831 | 0.805 | 0.585 | 0.263 | 0.292 | 0.289 | 0.253 | 0.262 | 0.881 | 0.788 | 0.92 | 0.835 | 0.618 | 0.894 | 0.883 | 0.83 | 0.698 | 0.479 |
| LCLC-97TM1 | 0.19 | 0.236 | 0.231 | 0.258 | 0.256 | 0.199 | 0.195 | 0.181 | 0.203 | 0.2 | 0.286 | 0.236 | 0.241 | 0.333 | 0.236 | 0.233 | 0.207 | 0.214 | 0.152 | 0.139 |
| LCLC-103H | 0.809 | 0.784 | 0.8 | 0.81 | 0.631 | 0.466 | 0.435 | 0.444 | 0.465 | 0.419 | 0.724 | 0.723 | 0.731 | 0.733 | 0.527 | 0.718 | 0.605 | 0.713 | 0.588 | 0.561 |
| LK-2 | 0.427 | 0.406 | 0.378 | 0.416 | 0.221 | 0.291 | 0.238 | 0.284 | 0.208 | 0.24 | 0.306 | 0.267 | 0.256 | 0.259 | 0.243 | 0.778 | 0.686 | 0.652 | 0.447 | 0.349 |
| LOU-NH91 | 0.733 | 0.793 | 0.734 | 0.748 | 0.59 | 0.353 | 0.363 | 0.349 | 0.337 | 0.456 | 0.792 | 0.843 | 0.822 | 0.794 | 0.746 | 0.777 | 0.771 | 0.804 | 0.739 | 0.674 |
| LU99A | 0.433 | 0.416 | 0.233 | 0.319 | 0.295 | 0.204 | 0.183 | 0.223 | 0.184 | 0.178 | 0.864 | 0.745 | 0.937 | 0.806 | 0.445 | 0.599 | 0.615 | 0.504 | 0.471 | 0.378 |
| NCI-H520 | – | – | – | – | – | 0.653 | 0.752 | 0.655 | 0.685 | 0.351 | 0.47 | 0.521 | 0.588 | 0.55 | 0.44 | 0.698 | 0.906 | 0.604 | 0.698 | 0.355 |
| NCI-H661 | – | – | – | – | – | 0.923 | 0.918 | 0.889 | 0.921 | 0.602 | 0.593 | 0.578 | 0.603 | 0.63 | 0.444 | 0.62 | 0.605 | 0.715 | 0.536 | 0.363 |
| NCI-H727 | 0.528 | 0.678 | 0.812 | 0.602 | 0.755 | – | – | – | – | – | 0.884 | 0.851 | 0.785 | 1 | 0.862 | 0.368 | 0.365 | 0.347 | 0.331 | 0.273 |
| NCI-H1563 | – | – | – | – | – | 0.795 | 0.699 | 0.767 | 0.694 | 0.685 | – | – | – | – | – | – | – | – | – | – |
| NCI-H1650 | – | – | – | – | – | 0.391 | 0.384 | 0.377 | 0.376 | 0.3 | 0.415 | 0.401 | 0.58 | 0.661 | 0.461 | 0.594 | 0.585 | 0.507 | 0.372 | 0.376 |
| NCI-H1703 | 0.143 | 0.146 | 0.127 | 0.108 | 0.124 | – | – | – | – | – | – | – | – | – | – | – | – | – | – | – |
| NCI-H2009 | – | – | – | – | – | 1.07 | 1.05 | 1.07 | 1.01 | 0.849 | 0.373 | 0.367 | 0.415 | 0.456 | 0.395 | 0.312 | 0.354 | 0.325 | 0.294 | 0.238 |
| NCI-H2023 | – | – | – | – | – | 0.278 | 0.222 | 0.196 | 0.166 | 0.134 | 0.248 | 0.246 | 0.23 | 0.325 | 0.191 | 0.467 | 0.473 | 0.226 | 0.127 | 0.0998 |
| NCI-H2228 | – | – | – | – | – | 0.348 | 0.345 | 0.299 | 0.26 | 0.144 | – | – | – | – | – | 0.466 | 0.587 | 0.524 | 0.224 | 0.183 |
| SK-LU-1 | – | – | – | – | – | 1.07 | 0.953 | 1.06 | 0.917 | 0.465 | 0.595 | 0.715 | 0.609 | 0.616 | 0.46 | 0.445 | 0.617 | 0.463 | 0.361 | 0.402 |
| SK-MES-1 | – | – | – | – | – | 0.984 | 0.958 | 0.827 | 0.86 | 0.646 | 0.407 | 0.491 | 0.408 | 0.643 | 0.356 | 0.553 | 0.693 | 0.865 | 0.83 | 0.512 |
| SW 1573 | – | – | – | – | – | 0.925 | 0.731 | 0.794 | 0.812 | 0.322 | 0.555 | 0.472 | 0.565 | 0.543 | 0.422 | 0.652 | 0.722 | 0.733 | 0.554 | 0.431 |
